Patent publication US10618905B2, “Pyrimidine-based compounds for the treatment of cancer” (G1 Therapeutics, Inc., priority 2016, dated 2020)

Experiments:
Type in all cases: biochemical
CDK6/Cyclin D3 = CDK6/Cyclin D3 (Homo sapiens, UniProt Q00534); experiment: CDK6/Cyclin D3 kinase assay
Protocol: [The procedure below names another target; the source lists this target under the same test.] (§1) Selected compounds disclosed herein were tested in CDK4/cyclinD1, CDK2/CycA and CDK2/cyclinE kinase assays by Nanosyn (Santa Clara, Calif.) to determine their inhibitory effect on these CDKs. The assays were performed using microfluidic kinase detection technology (Caliper Assay Platform). The compounds were tested in 12-point dose-response format in singlicate at Km for ATP. Phosphoacceptor substrate peptide concentration used was 1 μM for all assays and Staurosporine was used as the reference compound for all assays.

CDK9/Cyclin T = CDK9/Cyclin T (Homo sapiens, UniProt P50750); experiment: CDK9/Cyclin T kinase assay
Chain of CDK9/Cyclin T (P50750 whole entry): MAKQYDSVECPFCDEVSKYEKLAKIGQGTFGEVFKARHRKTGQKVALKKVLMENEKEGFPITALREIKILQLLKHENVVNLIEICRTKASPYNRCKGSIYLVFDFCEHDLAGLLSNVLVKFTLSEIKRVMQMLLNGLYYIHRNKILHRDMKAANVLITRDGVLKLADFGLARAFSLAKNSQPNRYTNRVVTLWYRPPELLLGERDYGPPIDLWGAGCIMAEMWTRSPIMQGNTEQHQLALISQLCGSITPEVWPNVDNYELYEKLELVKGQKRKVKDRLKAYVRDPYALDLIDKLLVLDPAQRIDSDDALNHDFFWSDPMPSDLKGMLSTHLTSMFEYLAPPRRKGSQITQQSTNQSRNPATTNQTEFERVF
Chain of CDK9/Cyclin T (O60563 whole entry partner): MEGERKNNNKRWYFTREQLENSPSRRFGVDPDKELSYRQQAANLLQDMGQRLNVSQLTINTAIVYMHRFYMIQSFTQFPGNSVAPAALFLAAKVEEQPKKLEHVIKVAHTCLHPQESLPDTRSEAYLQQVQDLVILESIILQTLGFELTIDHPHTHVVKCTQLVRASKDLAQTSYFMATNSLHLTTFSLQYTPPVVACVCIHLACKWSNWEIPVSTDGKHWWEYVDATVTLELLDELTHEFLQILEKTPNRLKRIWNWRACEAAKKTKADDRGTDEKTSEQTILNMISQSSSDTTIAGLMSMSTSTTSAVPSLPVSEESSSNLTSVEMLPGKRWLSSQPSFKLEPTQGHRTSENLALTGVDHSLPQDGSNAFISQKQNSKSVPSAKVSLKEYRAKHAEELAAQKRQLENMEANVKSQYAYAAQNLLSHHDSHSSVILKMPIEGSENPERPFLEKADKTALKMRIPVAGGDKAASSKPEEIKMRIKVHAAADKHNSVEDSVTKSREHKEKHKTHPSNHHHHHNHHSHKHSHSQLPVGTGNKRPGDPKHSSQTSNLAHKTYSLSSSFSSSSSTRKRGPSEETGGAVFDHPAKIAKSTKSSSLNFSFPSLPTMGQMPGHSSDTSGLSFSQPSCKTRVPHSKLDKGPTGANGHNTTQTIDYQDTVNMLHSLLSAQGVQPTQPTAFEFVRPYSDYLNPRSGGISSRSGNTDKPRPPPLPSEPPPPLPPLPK

CDK4/Cyclin D1 = CDK4/Cyclin D1 (Homo sapiens, UniProt P11802); experiment: CDK4/CyclinD1 kinase assay (Nanosyn, Caliper microfluidic); conditions: 12-point dose-response, ATP at Km (200 μM), 1 nM enzyme, 10 hr
Chain of CDK4/Cyclin D1 (P11802 whole entry): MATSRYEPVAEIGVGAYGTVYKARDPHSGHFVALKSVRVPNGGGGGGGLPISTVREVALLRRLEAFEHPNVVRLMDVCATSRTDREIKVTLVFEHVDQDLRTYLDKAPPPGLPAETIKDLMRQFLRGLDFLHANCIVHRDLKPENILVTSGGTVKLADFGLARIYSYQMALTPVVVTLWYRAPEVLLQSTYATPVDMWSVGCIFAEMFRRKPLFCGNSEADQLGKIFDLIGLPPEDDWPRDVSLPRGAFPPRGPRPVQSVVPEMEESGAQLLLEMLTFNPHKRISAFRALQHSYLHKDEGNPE
Chain of CDK4/Cyclin D1 (P24385 whole entry partner): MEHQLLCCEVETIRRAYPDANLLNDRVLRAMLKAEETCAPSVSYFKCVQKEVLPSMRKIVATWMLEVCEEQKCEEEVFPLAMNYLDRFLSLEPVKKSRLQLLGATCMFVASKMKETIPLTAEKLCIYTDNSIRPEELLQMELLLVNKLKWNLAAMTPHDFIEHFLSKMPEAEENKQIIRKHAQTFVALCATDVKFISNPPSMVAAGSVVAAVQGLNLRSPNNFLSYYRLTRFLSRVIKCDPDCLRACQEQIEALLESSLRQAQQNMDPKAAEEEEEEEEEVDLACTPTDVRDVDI
Protocol: as §1, with “assays. Specifics of each assay are as described below:” for “assays.”
CDK4/CyclinD1: Enzyme concentration: 1 nM; ATP concentration: 200 μM; Incubation time: 10 hr.

CDK2/Cyclin E = CDK2/Cyclin E (Homo sapiens, UniProt P24941); experiment: CDK2/CyclinE kinase assay (Nanosyn, Caliper microfluidic); conditions: 12-point dose-response, ATP at Km (100 μM), 0.28 nM enzyme, 1 hr
Protocol: as §1, with “assays. Specifics of each assay are as described below:” for “assays.”
CDK2/CyclinE: Enzyme concentration: 0.28 nM; ATP concentration: 100 μM; Incubation time: 1 hr.

CDK2/Cyclin A = CDK2/Cyclin A (Homo sapiens, UniProt P24941); experiment: CDK2/CyclinA kinase assay (Nanosyn, Caliper microfluidic); conditions: 12-point dose-response, ATP at Km (50 μM), 0.2 nM enzyme, 3 hr
Protocol: as §1, with “assays. Specifics of each assay are as described below:” for “assays.”
CDK2/CyclinA: Enzyme concentration: 0.2 nM; ATP concentration: 50 μM; Incubation time: 3 hr.

Chain of CDK6/Cyclin D3 (Q00534 whole entry): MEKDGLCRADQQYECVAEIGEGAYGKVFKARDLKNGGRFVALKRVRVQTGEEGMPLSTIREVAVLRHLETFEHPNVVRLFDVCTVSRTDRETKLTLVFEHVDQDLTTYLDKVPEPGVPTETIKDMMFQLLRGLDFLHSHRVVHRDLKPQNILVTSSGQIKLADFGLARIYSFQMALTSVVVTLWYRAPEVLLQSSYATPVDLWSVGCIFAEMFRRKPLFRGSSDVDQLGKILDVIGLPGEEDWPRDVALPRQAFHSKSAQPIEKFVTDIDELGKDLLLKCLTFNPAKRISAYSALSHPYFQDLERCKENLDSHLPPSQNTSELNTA
Chain of CDK6/Cyclin D3 (P30281 whole entry partner): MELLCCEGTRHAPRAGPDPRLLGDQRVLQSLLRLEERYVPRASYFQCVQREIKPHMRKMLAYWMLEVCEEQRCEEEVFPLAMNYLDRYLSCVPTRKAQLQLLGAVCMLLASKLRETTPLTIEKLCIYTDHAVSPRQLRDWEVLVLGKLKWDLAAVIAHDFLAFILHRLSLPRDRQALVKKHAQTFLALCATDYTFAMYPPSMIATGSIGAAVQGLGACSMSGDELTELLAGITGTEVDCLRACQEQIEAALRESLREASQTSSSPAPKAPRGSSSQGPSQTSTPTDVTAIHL

**Q.** Which IC50 (CDK6/Cyclin D3) does the source give for `CN1CCN(c2ccc(Nc3ncc4cc5n(c4n3)C3(CCCCC3)CN=C5)nc2)CC1` [Compound 1, N-(5-(4-methylpiperazin-1-yl)pyridin-2-yl)-8′H-spiro[cyclohexane-1,9′-pyrazino[1′,2′:1,5]pyrrolo[2,3-d]pyrimidin]-2′-amine] here?
**A.** 3 nM

**Q.** And the IC50 (CDK9/Cyclin T)?
**A.** 95 nM

**Q.** What about the IC50 (CDK4/Cyclin D1) of the same molecule?
**A.** 1 nM

**Q.** And the IC50 (CDK2/Cyclin E)?
**A.** 61 nM

**Q.** And the IC50 (CDK2/Cyclin A)?
**A.** 187 nM

**Q.** For `CN1CCN(c2ccc(Nc3ncc4cc5n(c4n3)C3(CCCCC3)CN=C5NCc3ccccc3)nc2)CC1` [Compound 5, N6′-benzyl-N2′-(5-(4-methylpiperazin-1-yl)pyridin-2-yl)-8′H-spiro[cyclohexane-1,9′-pyrazino[1′,2′: 1,5]pyrrolo[2,3-d]pyrimidine]-2′,6′-diamine], which IC50 (CDK6/Cyclin D3) is on record?
**A.** 390 nM

**Q.** And the IC50 (CDK9/Cyclin T)?
**A.** 11200 nM

**Q.** And the IC50 (CDK4/Cyclin D1)?
**A.** 160 nM

**Q.** What about the IC50 (CDK2/Cyclin E) of the same molecule?
**A.** > 100000 nM

**Q.** What about the IC50 (CDK2/Cyclin A) of the same molecule?
**A.** 70700 nM

**Q.** With `CN1CCN(c2ccc(Nc3ncc4cc5n(c4n3)C3(CCCCC3)CN=C5Nc3ccccc3)nc2)CC1` [Compound 4, N2′-(5-(4-methylpiperazin-1-yl)pyridin-2-yl)-N6′-phenyl-8′H-spiro[cyclohexane-1,9′-pyrazino[1′,2′: 1,5]pyrrolo[2,3-d]pyrimidine]-2′,6′-diamine] as the molecule, how does the IC50 (CDK6/Cyclin D3) read?
**A.** 61 nM

**Q.** What about the IC50 (CDK9/Cyclin T) of the same molecule?
**A.** 1570 nM

**Q.** What about the IC50 (CDK4/Cyclin D1) of the same molecule?
**A.** 27 nM

**Q.** And the IC50 (CDK2/Cyclin E)?
**A.** 54900 nM

**Q.** And the IC50 (CDK2/Cyclin A)?
**A.** 24600 nM

**Q.** For `CO[C@H]1CC[C@]2(CC1)CN=Cc1cc3cnc(Nc4ccc(N5CCN(C)CC5)cn4)nc3n12` [Compound 12, (1R,4R)-4-methoxy-N-(5-(4-methylpiperazin-1-yl)pyridin-2-yl)-8′H-spiro[cyclohexane-1,9′-pyrazino[1′,2′:1,5]pyrrolo[2,3-d]pyrimidin]-2′-amine], which IC50 (CDK6/Cyclin D3) is on record?
**A.** 100 nM

**Q.** And the IC50 (CDK9/Cyclin T)?
**A.** 1000 nM

**Q.** What about the IC50 (CDK4/Cyclin D1) of the same molecule?
**A.** 40 nM

**Q.** What about the IC50 (CDK2/Cyclin E) of the same molecule?
**A.** 7000 nM

**Q.** And the IC50 (CDK2/Cyclin A)?
**A.** 10000 nM

**Q.** What does the source list for `CN1CCN(c2ccc(Nc3ncc4cc5n(c4n3)C3(CCCCC3)CNC5)nc2)CC1` [Compound 2, N-(5-(4-methylpiperazin-1-yl)pyridin-2-yl)-7′,8′-dihydro-6′H-spiro[cyclohexane-1,9′-pyrazino[1′,2′: 1,5]pyrrolo[2,3-d]pyrimidin]-2′-amine]?
**A.** IC50 (CDK6/Cyclin D3): 90 nM; IC50 (CDK9/Cyclin T): 4470 nM; IC50 (CDK4/Cyclin D1): 29 nM; IC50 (CDK2/Cyclin E): 5750 nM; IC50 (CDK2/Cyclin A): 12900 nM

**Q.** What does the source list for `CN1CCN(c2ccc(Nc3ncc4cc5n(c4n3)C3(CCOCC3)CN=C5)nc2)CC1` [Compound 10, N-(5-(4-methylpiperazin-1-yl)pyridin-2-yl)-2,3,5,6-tetrahydro-8′H-spiro[pyran-4,9′-pyrazino[1′,2′: 1,5]pyrrolo[2,3-d]pyrimidin]-2′-amine]?
**A.** IC50 (CDK6/Cyclin D3): 70 nM; IC50 (CDK9/Cyclin T): 2000 nM; IC50 (CDK4/Cyclin D1): 40 nM; IC50 (CDK2/Cyclin E): 5000 nM; IC50 (CDK2/Cyclin A): 7000 nM

**Q.** Which results are given for `CCCNC1=NCC2(CCCCC2)n2c1cc1cnc(Nc3ccc(N4CCN(C)CC4)cn3)nc12` [Compound 3, N2′-(5-(4-methylpiperazin-1-yl)pyridin-2-yl)-N6′-propyl-8′H-spiro[cyclohexane-1,9′-pyrazino[1′,2′: 1,5]pyrrolo[2,3-d]pyrimidine]-2′,6′-diamine]?
**A.** IC50 (CDK6/Cyclin D3): 1260 nM; IC50 (CDK9/Cyclin T): 32500 nM; IC50 (CDK4/Cyclin D1): 740 nM; IC50 (CDK2/Cyclin E): > 100000 nM; IC50 (CDK2/Cyclin A): > 100000 nM

**Q.** What does the source list for `CO[C@H]1CC[C@@]2(CC1)CN=Cc1cc3cnc(Nc4ccc(N5CCN(C)CC5)cn4)nc3n12` [Compound 13, (1S,4S)-4-methoxy-N-(5-(4-methylpiperazin-1-yl)pyridin-2-yl)-8′H-spiro[cyclohexane-1,9′-pyrazino[1′,2′:1,5]pyrrolo[2,3-d]pyrimidin]-2′-amine]?
**A.** IC50 (CDK6/Cyclin D3): 20 nM; IC50 (CDK9/Cyclin T): 900 nM; IC50 (CDK4/Cyclin D1): 9 nM; IC50 (CDK2/Cyclin E): 3000 nM; IC50 (CDK2/Cyclin A): 4000 nM

**Q.** `CC1=NCC2(CCCCC2)n2c1cc1cnc(Nc3ccc(N4CCN(C)CC4)cn3)nc12` [Compound 9, 6′-methyl-N-(5-(4-methylpiperazin-1-yl)pyridin-2-yl)-8′H-spiro[cyclohexane-1,9′-pyrazino[1′,2′: 1,5]pyrrolo[2,3-d]pyrimidin]-2′-amine] was tested. Which IC50 (CDK6/Cyclin D3) did it give?
**A.** 24 nM

**Q.** What about the IC50 (CDK9/Cyclin T) of the same molecule?
**A.** 2500 nM

**Q.** And the IC50 (CDK4/Cyclin D1)?
**A.** 96 nM

**Q.** And the IC50 (CDK2/Cyclin E)?
**A.** 3000 nM

**Q.** What about the IC50 (CDK2/Cyclin A) of the same molecule?
**A.** 3700 nM
